pEC50: −log10 of the molar value.
Columns and labels:
human plasma protein = conditions: IV administered bortezomib; average; cited from earlier work
SARS-CoV-2 = conditions: cited from earlier work; for dose for complete prevention of CPE: Vero E6, shorter drug treatment time, bortezomib could not completely prevent CPE at these doses
[1] = tested on: 2019 Novel Coronavirus, Isolate USA-WA1/2020 (SARS-CoV-2); assay: In vitro efficacy in Vero E6 cells, immunostaining assay (second testing series); format: cell-based; conditions: for pEC50: Severe acute respiratory syndrome coronavirus 2, Vero C1008
[2] = tested on: 2019 Novel Coronavirus, Isolate USA-WA1/2020 (SARS-CoV-2); assay: In vitro efficacy in Calu-3 lung cells, immunostaining assay; format: cell-based
[3] = target: β5 chymotrypsin-like subunit of the 20S proteolytic site of the proteasome (Homo sapiens, UniProt P28074); conditions: proteasome inhibitor dissociation; cited from earlier work
[4] = cited from earlier work
Vero E6 cells [5] = conditions: ranking of drugs for expected efficacy against SARS-CoV-2; cited from earlier work
Vero E6 cells [6] = conditions: cited from earlier work
[7] = Vero E6, shorter treatment schedule

**Q.** For CC(C)C[C@H](NC(=O)[C@H](Cc1ccccc1)NC(=O)c1cnccn1)B(O)O [Bortezomib], which “in vitro binding to human plasma protein” value (human plasma protein) is on record?
**A.** 83%

**Q.** What about the “dose for complete prevention of CPE” value (SARS-CoV-2) of the same compound?
**A.** > 30 µM

**Q.** What about the “doses at which inhibition of virus-induced cytopathic effects was observed” value (SARS-CoV-2; [7]) of the same compound?
**A.** > 30 µM

**Q.** And the “concentration inhibiting virus-induced cytopathic effects (CPE)” value (SARS-CoV-2; Vero E6 cells infected with SARS-CoV-2)?
**A.** 0.05 µM

**Q.** What about the pEC50 ([1]; Vero E6 cells, MOI 0.001 TCID50/cell, immunostaining at 48±6 hours post inoculation, read-out: EC50) of the same compound?
**A.** 8.00

**Q.** And the EC100 ([1]; Vero E6 cells, whether EC100 was achieved)?
**A.** Achieved

**Q.** And the pEC50 ([2]; Calu-3 lung cells, MOI 0.001 TCID50/cell, immunostaining at 48±6 hours post inoculation, preliminary results, read-out: EC50)?
**A.** 8.16

**Q.** And the EC100 ([2]; Calu-3 lung cells, whether EC100 was achieved)?
**A.** Achieved

**Q.** What about the pEC50 ([2]; Severe acute respiratory syndrome coronavirus 2, Calu-3, Calu-3 lung cells, MOI 0.001 TCID50/cell, immunostaining at 48±6 hours post inoculation, preliminary results, read-out: EC50) of the same compound?
**A.** 8.11

**Q.** What about the dissociation half-life [3] of the same compound?
**A.** 110 min

**Q.** What about the bioavailability ([4]; IV administration or subcutaneous injection) of the same compound?
**A.** 100%

**Q.** And the “time to peak plasma levels” value ([4]; after IV administration)?
**A.** approximately 5 minutes

**Q.** And the “category in algorithmic prediction study” value (Vero E6 cells [5])?
**A.** cytotoxic drug

**Q.** And the “doses at which cytotoxicity was observed” value (Vero E6 cells [6]; [7])?
**A.** > 30 µM

**Q.** And the “concentration at which cytotoxicity was observed” value (Vero E6 cells [6]; Vero E6 cells)?
**A.** 2 nM

**Q.** Which dissociation half-life [3] does the source give for CC(C)C[C@H](NC(=O)CNC(=O)c1cc(Cl)ccc1Cl)B(O)O [Ixazomib] here?
**A.** 18 min

**Q.** For CCN(CC)CCCC(C)Nc1ccnc2cc(Cl)ccc12 (stereo not shown) [chloroquine], which “dose for complete prevention of CPE” value (SARS-CoV-2) is on record?
**A.** 15 µM

**Q.** Which results are given for CCC(CC)COC(=O)[C@H](C)N[P@](=O)(OC[C@H]1O[C@@](C#N)(c2ccc3c(N)ncnn23)[C@H](O)[C@@H]1O)Oc1ccccc1 [Remdesivir]?
**A.** pEC50 [1]: 5.94; pEC50 ([2]; Severe acute respiratory syndrome coronavirus 2, Calu-3): 6.60
